Reference: patent US20240109853A1 (Shanghai Yao Yuan Biotechnology Co., Ltd., priority 2020, published 2024)
Read-outs that look alike come from different tables or passages of the source.

Experiments:
[1] = molecular target: ALPK1 (Homo sapiens (Human), UniProt Q96QP1); assay: ALPK1 in vitro kinase assay (HTRF of TIFA phosphorylation); type: biochemical
[2] = test system: ALPK1-dependent NFκB reporter gene activation in HEK293 cells stably expressing an NF-kB reporter (G9 cells); assay: NFκB gene reporter alkaline phosphatase assay; type: cell-based; conditions: read-out: NFkB assay IC50
Method in brief: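 Compounds, serially diluted, were added to attached HEK293-derived G9 reporter cells for 30 min prior to stimulation with the fluoro-heptose ADP agonist. Secreted alkaline phosphatase was quantified colorimetrically using pNPP.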

Chain of ALPK1 (Q96QP1 whole entry): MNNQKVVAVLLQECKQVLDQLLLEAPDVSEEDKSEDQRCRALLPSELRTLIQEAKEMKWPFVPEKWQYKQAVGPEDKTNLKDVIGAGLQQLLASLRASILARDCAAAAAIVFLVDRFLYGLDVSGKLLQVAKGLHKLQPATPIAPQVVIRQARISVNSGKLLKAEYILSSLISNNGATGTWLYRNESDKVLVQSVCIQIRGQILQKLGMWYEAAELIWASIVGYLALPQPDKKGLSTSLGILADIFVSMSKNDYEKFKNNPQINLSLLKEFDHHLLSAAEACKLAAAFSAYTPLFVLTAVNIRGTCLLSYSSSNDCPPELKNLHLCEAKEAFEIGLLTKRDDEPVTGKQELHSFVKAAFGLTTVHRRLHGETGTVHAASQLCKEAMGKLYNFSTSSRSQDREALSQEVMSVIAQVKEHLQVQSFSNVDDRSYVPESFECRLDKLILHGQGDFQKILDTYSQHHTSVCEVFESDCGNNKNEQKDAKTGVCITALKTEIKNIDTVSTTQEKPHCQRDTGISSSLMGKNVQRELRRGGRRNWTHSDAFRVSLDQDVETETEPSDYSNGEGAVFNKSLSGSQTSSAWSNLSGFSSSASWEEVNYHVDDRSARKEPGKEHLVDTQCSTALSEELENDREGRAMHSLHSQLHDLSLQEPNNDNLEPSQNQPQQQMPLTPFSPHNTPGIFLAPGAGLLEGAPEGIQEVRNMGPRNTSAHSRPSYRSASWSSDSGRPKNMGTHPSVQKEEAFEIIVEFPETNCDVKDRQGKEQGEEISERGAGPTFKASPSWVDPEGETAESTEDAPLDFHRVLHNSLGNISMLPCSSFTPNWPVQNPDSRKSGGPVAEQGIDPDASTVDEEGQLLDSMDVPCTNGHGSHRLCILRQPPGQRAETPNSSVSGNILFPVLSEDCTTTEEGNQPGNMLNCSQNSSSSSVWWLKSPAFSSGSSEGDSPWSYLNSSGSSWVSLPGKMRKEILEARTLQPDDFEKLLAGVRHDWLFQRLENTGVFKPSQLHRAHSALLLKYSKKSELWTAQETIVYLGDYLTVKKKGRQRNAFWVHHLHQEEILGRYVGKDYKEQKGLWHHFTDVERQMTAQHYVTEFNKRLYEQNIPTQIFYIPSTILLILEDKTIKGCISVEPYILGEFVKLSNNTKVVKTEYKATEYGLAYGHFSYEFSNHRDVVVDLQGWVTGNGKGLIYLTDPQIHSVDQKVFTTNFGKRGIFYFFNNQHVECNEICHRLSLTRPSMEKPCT

COc1ccc(C(C)(C)c2csc(NC(=O)NCc3ccc(NCCN)nc3)n2)cc1 [Example A202, 1-((6-((2-aminoethyl)amino)pyridin-3-yl)methyl)-3-(4-(2-(4-methoxyphenyl)propan-2-yl)thiazol-2-yl)urea]
IC50 [1]: 34 nM | IC50 ([2]; Homo sapiens, HEK293): 5710 nM

COc1ccc(C(C)(C)c2csc(NC(=O)NCCCS(C)(=O)=O)n2)cc1 [Example A136, 1-(4-(2-(4-methoxyphenyl)propan-2-yl)thiazol-2-yl)-3-(3-(methylsulfonyl)propyl) urea]
IC50 [1]: 209 nM | IC50 ([2]; Homo sapiens, HEK293): 640 nM

CC(C)(c1ccc(Br)cc1)c1csc(NC(=O)NCCN)n1 [Example A210, 1-(2-aminoethyl)-3-(4-(2-(4-bromophenyl)propan-2-yl)thiazol-2-yl)urea]
IC50 [1]: 95 nM | IC50 ([2]; Homo sapiens, HEK293): 4160 nM

CN1CCC(NC(=O)C2CCC(CNC(=O)Nc3nc(C(C)(C)c4ccc(Br)cc4)cs3)CC2)CC1 (centres unmarked) [Example A100, 4-((3-(4-(2-(4-bromophenyl)propan-2-yl)thiazol-2-yl)ureido)methyl)-N-(1-methylpiperidin-4-yl)cyclohexane-1-carboxamide]
IC50 [1]: 72 nM | IC50 ([2]; Homo sapiens, HEK293): 1370 nM

CC(C)(c1ccc(Br)cc1)c1csc(NC(=O)NCc2ccc(N3CCNCC3)c(C(N)=O)c2)n1 [Example A052, 5-((3-(4-(2-(4-bromophenyl)propan-2-yl)thiazol-2-yl)ureido)methyl)-2-(piperazin-1-yl)benzamide]
IC50 [1]: 24 nM | IC50 ([2]; Homo sapiens, HEK293): 1960 nM

CC(C)(c1ccc(Br)cc1)c1csc(NC(=O)NCCCO)n1 [Example A126, 1-(4-(2-(4-bromophenyl)propan-2-yl)thiazol-2-yl)-3-(3-hydroxypropyl)urea]
IC50 [1]: 88 nM | IC50 ([2]; Homo sapiens, HEK293): 2960 nM

COc1ccc(C(C)(C)c2csc(NC(=O)NCc3cnc(N4CCC(N(C)C)C4)nc3)n2)cc1 (centres unmarked) [Example A012, 1-((2-(3-(dimethylamino)pyrrolidin-1-yl)pyrimidin-5-yl)methyl)-3-(4-(2-(4-methoxyphenyl)propan-2-yl)thiazol-2-yl)urea]
IC50 [1]: 40 nM | IC50 ([2]; Homo sapiens, HEK293): 2210 nM

C#C[C@](C)(c1ccc(Cl)cc1)c1csc(NC(=O)NCCS(N)(=O)=O)n1 [Example A288, 2-(3-(4-(2-(4-chlorophenyl)but-3-yn-2-yl)thiazol-2-yl)ureido)ethanesulfona-mide]
IC50 [1]: 270 nM | IC50 ([2]; Homo sapiens, HEK293): 1210 nM

C#CC(C)(c1ccc(Cl)cc1)c1csc(NC(=O)N2CCNCC2)n1 (centres unmarked) [Example A308, N-(4-(2-(4-chlorophenyl)but-3-yn-2-yl)thiazol-2-yl)piperazine-1-carboxamide]
IC50 [1]: 1540 nM | IC50 ([2]; Homo sapiens, HEK293): 5330 nM

CC(C)(c1ccc(F)cc1)c1csc(NC(=O)NCc2cnc(N3CCNCC3)nc2)n1 [Example A085, 1-(4-(2-(4-fluorophenyl)propan-2-yl)thiazol-2-yl)-3-((2-(piperazin-1-yl)pyrimidin-5-yl)methyl)urea]
IC50 [1]: 85 nM | IC50 ([2]; Homo sapiens, HEK293): 490 nM

COc1ccc(C(C)(C)c2csc(NC(=O)NCc3ccc(N4CCC(N)C4)nc3)n2)cc1 (centres unmarked) [Example A186, 1-((6-(3-aminopyrrolidin-1-yl)pyridin-3-yl)methyl)-3-(4-(2-(4-methoxyphenyl)propan-2-yl)thiazol-2-yl)urea]
IC50 [1]: 19 nM | IC50 [2]: 1550 nM

C#C[C@@](C)(c1ccc(Cl)cc1)c1csc(NC(=O)NC[C@@H](O)CO)n1 [Example A303, 1-(4-(2-(4-chlorophenyl)but-3-yn-2-yl)thiazol-2-yl)-3-((R)-2,3-dihydroxypropyl)urea]
IC50 [1]: 101 nM | IC50 ([2]; Homo sapiens, HEK293): 660 nM

C#CC(C)(c1ccc(Cl)cc1)c1csc(NC(=O)N2CC(CN3CCC(N)CC3)C2)n1 (centres unmarked) [Example A263, 3-((4-aminopiperidin-1-yl)methyl)-N-(4-(2-(4-chlorophenyl)but-3-yn-2-yl)thiazol-2-yl)azetidine-1-carboxamide]
IC50 [1]: 39 nM | IC50 ([2]; Homo sapiens, HEK293): 1440 nM

C#C[C@@](C)(c1ccc(F)cc1)c1csc(NC(=O)NCCS(N)(=O)=O)n1 [Example A285, 2-(3-(4-(2-(4-fluorophenyl)but-3-yn-2-yl)thiazol-2-yl)ureido)ethanesulfona-mide]
IC50 [1]: 350 nM | IC50 ([2]; Homo sapiens, HEK293): 1360 nM

COc1ccc(C(C)(C)c2csc(NC(=O)NCc3ccc(N4CCC(O)CC4)cc3)n2)cc1 [Example A139, 1-(4-(4-hydroxypiperidin-1-yl)benzyl)-3-(4-(2-(4-methoxyphenyl)propan-2-yl)thiazol-2-yl)urea]
IC50 [1]: 261 nM | IC50 ([2]; Homo sapiens, HEK293): 1350 nM

C#C[C@@](C)(c1ccc(Cl)cc1)c1csc(NC(=O)NC[C@H](O)CO)n1 [Example A304, 1-(4-(2-(4-chlorophenyl)but-3-yn-2-yl)thiazol-2-yl)-3-((S)-2,3-dihydroxypropyl)urea]
IC50 [1]: 90 nM | IC50 ([2]; Homo sapiens, HEK293): 520 nM

C#C[C@](C)(c1ccc(Cl)cc1)c1csc(NC(=O)NC[C@H](O)CO)n1 [Example A302, 1-(4-(2-(4-chlorophenyl)but-3-yn-2-yl)thiazol-2-yl)-3-((S)-2,3-dihydroxypropyl)urea]
IC50 [1]: 417 nM | IC50 ([2]; Homo sapiens, HEK293): 2040 nM

COc1ccc(C(C)(C)c2csc(NC(=O)NCc3cnc(N4CCNCC4)nc3C)n2)cc1 [Example A223, 1-(4-(2-(4-methoxyphenyl)propan-2-yl)thiazol-2-yl)-3-((4-methyl-2-(piperazin-1-yl)pyrimidin-5-yl)methyl)urea]
IC50 [1]: 49 nM | IC50 ([2]; Homo sapiens, HEK293): 760 nM

CC(C)(c1ccc(Br)cc1)c1csc(NC(=O)NCCS(N)(=O)=O)n1 [Example A131, 2-(3-(4-(2-(4-bromophenyl)propan-2-yl)thiazol-2-yl)ureido)ethanesulfona-mide]
IC50 [1]: 219 nM | IC50 ([2]; Homo sapiens, HEK293): 940 nM

C#CC(C)(c1ccc(Cl)cc1)c1csc(NC(=O)N2CC(CN3CCNCC3)C2)n1 (centres unmarked) [Example A259, N-(4-(2-(4-chlorophenyl)but-3-yn-2-yl)thiazol-2-yl)-3-(piperazin-1-ylmethyl)azetidine-1-carboxamide]
IC50 [1]: 48 nM | IC50 ([2]; Homo sapiens, HEK293): 440 nM

[2H]c1sc(NC(=O)NCCO)nc1[C@@](C)(C#C)c1ccc(Cl)cc1 [Example A299, 1-(4-(2-(4-chlorophenyl)but-3-yn-2-yl)thiazol-2-yl)-3-(2-hydroxyethyl)urea]
IC50 [1]: 58 nM | IC50 ([2]; Homo sapiens, HEK293): 460 nM

CCC(C)(c1ccc(Br)cc1)c1csc(NC(=O)NCc2ccc(N3CCNCC3)cc2)n1 (centres unmarked) [Example A039, 1-(4-(2-(4-bromophenyl)butan-2-yl)thiazol-2-yl)-3-(4-(piperazin-1-yl)benzyl)urea]
IC50 [1]: 189 nM | IC50 ([2]; Homo sapiens, HEK293): 711 nM

CC(C)(c1ccc(Br)cc1)c1csc(NC(=O)NCc2ccc(OCCN3CCNCC3)cc2)n1 [Example A034, 1-(4-(2-(4-bromophenyl)propan-2-yl)thiazol-2-yl)-3-(4-(2-(piperazin-1-yl)ethoxy)benzyl)urea]
IC50 [1]: 114 nM | IC50 ([2]; Homo sapiens, HEK293): 730 nM

CC(C)(c1ccc(Br)cc1)c1csc(NC(=O)NCc2cnc(N3CCCNCC3)nc2)n1 [Example A091, 1-((2-(1,4-diazepan-1-yl)pyrimidin-5-yl)methyl)-3-(4-(2-(4-bromophenyl)propan-2-yl)thiazol-2-yl)urea]
IC50 [1]: 135 nM | IC50 ([2]; Homo sapiens, HEK293): 3450 nM

C#C[C@@](C)(c1ccc(Br)cc1)c1csc(NC(=O)N2CC(CO)C2)n1 [Example A167, (S)-N-(4-(2-(4-bromophenyl)but-3-yn-2-yl)thiazol-2-yl)-3-(hydroxymethyl)azetidine-1-carboxamide]
IC50 [1]: 7 nM | IC50 ([2]; Homo sapiens, HEK293): 740 nM
